{"source": "paper PMC12541620", "about": "(Acta Pharmaceutica Sinica. B, 2025)", "key": {"[1]": {"biological_target": "T1, hCES2A (Homo sapiens, UniProt O00748)", "T1 sequence (O00748 27-559)": "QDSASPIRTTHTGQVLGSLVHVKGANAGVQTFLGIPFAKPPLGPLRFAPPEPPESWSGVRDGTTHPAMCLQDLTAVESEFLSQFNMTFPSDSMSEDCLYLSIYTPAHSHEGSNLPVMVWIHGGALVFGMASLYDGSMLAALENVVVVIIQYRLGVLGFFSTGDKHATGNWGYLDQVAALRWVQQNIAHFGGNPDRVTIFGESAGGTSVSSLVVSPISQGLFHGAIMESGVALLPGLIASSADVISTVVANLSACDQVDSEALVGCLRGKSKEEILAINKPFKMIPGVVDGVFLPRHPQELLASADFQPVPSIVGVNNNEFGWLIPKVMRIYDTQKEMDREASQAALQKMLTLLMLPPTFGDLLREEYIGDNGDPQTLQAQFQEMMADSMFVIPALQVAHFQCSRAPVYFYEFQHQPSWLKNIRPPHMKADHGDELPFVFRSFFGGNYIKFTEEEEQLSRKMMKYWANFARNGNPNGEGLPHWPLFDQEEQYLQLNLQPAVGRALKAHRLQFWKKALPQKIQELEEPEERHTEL", "experiment": "hCES2A inhibition assay", "assay_type": "biochemical", "conditions": "for Ratio: IC50 3 min / IC50 33 min"}, "[2]": {"biological_target": "hAChE (Homo sapiens, UniProt P22303)", "sequence (P22303 32-614)": "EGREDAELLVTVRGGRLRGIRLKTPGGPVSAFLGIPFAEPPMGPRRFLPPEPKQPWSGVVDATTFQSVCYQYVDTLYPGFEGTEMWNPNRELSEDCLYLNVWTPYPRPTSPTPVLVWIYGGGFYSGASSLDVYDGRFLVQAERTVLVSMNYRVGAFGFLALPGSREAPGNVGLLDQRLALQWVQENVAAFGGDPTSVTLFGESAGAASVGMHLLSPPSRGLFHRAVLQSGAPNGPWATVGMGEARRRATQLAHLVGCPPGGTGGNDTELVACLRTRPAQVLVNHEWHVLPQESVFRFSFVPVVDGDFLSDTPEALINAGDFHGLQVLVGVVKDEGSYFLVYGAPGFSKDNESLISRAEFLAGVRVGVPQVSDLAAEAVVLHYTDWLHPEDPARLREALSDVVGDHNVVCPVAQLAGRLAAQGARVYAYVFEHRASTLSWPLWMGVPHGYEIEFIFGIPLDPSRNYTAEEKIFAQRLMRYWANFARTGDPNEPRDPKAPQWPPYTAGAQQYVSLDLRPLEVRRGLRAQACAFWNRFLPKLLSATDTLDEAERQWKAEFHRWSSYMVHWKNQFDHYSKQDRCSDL", "experiment": "hAChE inhibition assay", "assay_type": "biochemical"}, "[3]": {"biological_target": "T1, hCES2A", "experiment": "dialysis assay", "assay_type": "biochemical", "conditions": "10 μmol/L, 33 min preincubation, dialysis 2 and 4 h"}, "[4]": {"tested_on": "irinotecan-triggered gut toxicity (ITGT) in tumor-bearing mice", "experiment": "irinotecan-triggered gut toxicity in tumor-bearing mice", "assay_type": "in vivo, C57BL/6J mice", "conditions": "C3 25 and 50 mg/kg; LPA 10 mg/kg"}, "[5]": {"conditions": "IC50 (nmol/L) 3 min, 3 min pre-incubation, FD substrate"}, "[6]": {"conditions": "IC50 (nmol/L) 33 min, 33 min pre-incubation, FD substrate"}}, "note": "Like-named read-outs stand apart in the source and are kept apart here."}
{"smiles": "COc1cc2c(cc1OC)C(=O)/C(=C/c1ccc(F)cc1)C2", "note": "[Compound B1]", "values": [{"measurement": "IC50", "setting": "[1]", "result": 20900, "unit": "nM"}]}
{"smiles": "COc1cc2c(cc1OC)C(=O)/C(=C/c1ccccc1Cl)C2", "note": "[Compound B2]", "values": [{"measurement": "IC50", "setting": "[1]", "result": 12100, "unit": "nM"}]}
{"smiles": "COc1cc2c(cc1OC)C(=O)/C(=C/c1ccccc1O)C2", "note": "[Compound B7]", "values": [{"measurement": "enhancement of anti-hCES2A effect relative to A3", "setting": "[1]", "result": 8.36, "unit": "folds"}, {"measurement": "Ratio", "setting": "[1]", "result": 0.33}, {"measurement": "IC50", "setting": "[1]; [5]", "result": "106 ± 15.5", "unit": "nM"}, {"measurement": "IC50", "setting": "[1]; [6]", "result": "325 ± 59.5", "unit": "nM"}, {"measurement": "IC50", "setting": "[1]; IC50 against hCES2A, FD substrate, 3 min preincubation", "result": 110, "unit": "nM"}, {"measurement": "anti-hAChE activity", "setting": "[2]", "result": "very weak anti-hAChE activity"}]}
{"smiles": "CN(C)C(=O)C(CCN1CCC(O)(c2ccc(Cl)cc2)CC1)(c1ccccc1)c1ccccc1", "note": "[LPA, loperamide]", "values": [{"measurement": "hCES2A activity after dialysis", "setting": "[3]", "result": "gradually recovering trend over time"}, {"measurement": "elevated colon IL-6, IL-1β and TNF-α levels", "setting": "[4]", "result": "reversed"}]}
{"smiles": "COc1cc2c(cc1OC)C(=O)/C(=C/c1ccccc1OC(=O)N1CCN(C)CC1)C2", "note": "[Compound C7]", "values": [{"measurement": "Ratio", "setting": "[1]", "result": 7.32}, {"measurement": "IC50", "setting": "[1]; [5]", "result": "258 ± 37.8", "unit": "nM"}, {"measurement": "IC50", "setting": "[1]; [6]", "result": "35.3 ± 3.67", "unit": "nM"}]}
{"smiles": "COc1cc2c(cc1OC)C(=O)/C(=C/c1ccccc1OC(=O)N1CCC(N3CCCCC3)CC1)C2", "note": "[Compound C8]", "values": [{"measurement": "Ratio", "setting": "[1]", "result": 3.25}, {"measurement": "IC50", "setting": "[1]; [5]", "result": "732 ± 71.7", "unit": "nM"}, {"measurement": "IC50", "setting": "[1]; [6]", "result": "225 ± 13.4", "unit": "nM"}]}
{"smiles": "COc1cccc(/C=C2\\Cc3cc(OC)c(OC)cc3C2=O)c1", "note": "[Compound B5]", "values": [{"measurement": "IC50", "setting": "[1]", "result": 64800, "unit": "nM"}]}
{"smiles": "COc1cc2c(cc1OC)C(=O)C(CC1CCN(Cc3ccccc3)CC1)C2", "note": "(centres unmarked) [Donepezil, reference compound]", "values": [{"measurement": "IC50", "setting": "[1]", "result": 3910, "unit": "nM"}]}
{"smiles": "COc1cc2c(cc1OC)C(=O)/C(=C/c1c(O)cccc1Br)C2", "note": "[Compound B20]", "values": [{"measurement": "IC50", "setting": "[1]", "result": 290, "unit": "nM"}]}
{"smiles": "COc1ccccc1/C=C1\\Cc2cc(OC)c(OC)cc2C1=O", "note": "[Compound B4]", "values": [{"measurement": "IC50", "setting": "[1]", "result": 5500, "unit": "nM"}]}
{"smiles": "COc1ccc(/C=C2\\Cc3cc(OC)c(OC)cc3C2=O)cc1", "note": "[Compound B6]", "values": [{"measurement": "IC50", "setting": "[1]", "result": 17900, "unit": "nM"}]}
{"smiles": "COc1cc2c(cc1OC)C(=O)/C(=C/c1ccccc1F)C2", "note": "[Compound B3]", "values": [{"measurement": "IC50", "setting": "[1]", "result": 2970, "unit": "nM"}]}
{"smiles": "COc1cc2c(cc1OC)C(=O)/C(=C/c1cccc(OC)c1O)C2", "note": "[Compound B21]", "values": [{"measurement": "IC50", "setting": "[1]", "result": 400, "unit": "nM"}]}
